# Columns and labels:
# [1] = tested on: pancreatic cancer cell line (PATU8988); assay: Cytotoxicity assay by CCK8 method; details: PATU8988, 48 h treatment, CCK-8, OD450
# [2] = tested on: normal human esophageal epithelial cells (HEECs); assay: Cytotoxicity assay by CCK8 method; details: 48 h treatment, CCK-8, OD450
# ThFhb7 [3] = assay type: cell-based, Thinopyrum ponticum
# [4] = tested on: human embryonic kidney cell 293-derived line (293T); assay: Cytotoxicity assay by CCK8 method; details: 48 h treatment, CCK-8, OD450
# ThFhb7 [5] = tested on: ThFhb7; set-up: species or system Thinopyrum ponticum; details: in vivo
# [6] = In vitro enzymatic reaction system of ThFhb7 polypeptide (DON + GSH, LC-HRMS); assay type: biochemical
# Method: The optimal conditions for the in vitro enzymatic reaction system of ThFhb7 polypeptide were established by gradient experiments of three different factors affecting the enzymatic reaction: • (1) the gradient of reaction enzyme amounts: 1 μg, 5 μg, 10 μg, 25 μg, and 50 μg; • (2) the pH gradient set with various buffers: ranging from 3.0 to 10.0, disodium hydrogen phosphate-citric acid buffer (pH=3.0, 4.0, 5.0), disodium hydrogen phosphate-potassium dihydrogen phosphate buffer (pH=6.0, 7.0), and Tris-phosphate buffer (pH=8.0, 9.0, 10.0); and • (3) the gradient of reaction temperatures: 4° C., 12° C., 15° C., 20° C., 25° C., 30° C., 37° C., 45° C., and 50° C.
# The reaction was performed in a phosphate buffer (PBS) (pH=7.0), at 25° C. for 12 h, and samples were taken at 0 h, 0.5 h, 1 h, 3 h, and 6 h respectively for LC-HRMS analysis; through the area results of first-level scanning of LC-HRMS, the changes in the amounts of the two substances, DON as the reaction substrate and the GSH adduct as the reaction product, were obtained with proceeding of reaction, so as to obtain the optimal enzyme amount for the reaction, as shown in FIGS. 14A and 14B. […]
# F. pseudograminearum [7] = details: in vivo
# F. pseudograminearum [8] = details: in vivo; remark: listed apart in the source
# F. asiaticum = details: in vivo
# Pichia pastoris = assay: DON tolerance of transgenic Pichia pastoris; assay type: cell-based; details: YPDA media comprising 400 μM DON, 5 days
Molecule,cell viability [1],cell viability [2],DON-GSH adduct in DON-treated yeast expressing the active polypeptide (ThFhb7 [3]),cell viability [4],amounts decreased as compared with the control (ThFhb7 [5]),toxin significantly reduced as compared with wheat without ThFhb7 (ThFhb7 [5]),"catalysis of vomitoxin into a glutathione adduct in vitro ([6]; DON 1 mg, GSH in PBS, 20° C., 24 h)","enzyme activity above 37° C. (DON-GSH cannot be detected) ([6]; above 37° C., pH 7.0, 25 μg enzyme)",death rate of transgenic plants vs wild type (F. pseudograminearum [7]),degree of disease at the stem base vs control (F. pseudograminearum [7]),diseased spot area on leaves vs KN199 (F. pseudograminearum [8]),diseased spot area on leaves vs KN199 (F. asiaticum),growth viability vs transgenic yeast with the blank vector (Pichia pastoris)
"CC1=C[C@H]2O[C@@H]3[C@H](O)C[C@](C)([C@@]2(CO)[C@H](O)C1=O)[C@]31CO1 [DON, deoxynivalenol]",decreases sharply,decreases sharply,detected,decreases sharply,about ⅔,about ⅓,–,–,–,–,–,–,–
"CC(=O)O[C@@H]1C[C@]2(C)[C@@]3(CO)[C@H](O)C(=O)C(C)=C[C@H]3O[C@H]1[C@@]21CO1 [3-ADON, 3-acetyl-deoxynivalenol]",–,–,–,–,about ⅔,about ⅓,–,–,–,–,–,–,–
"ThFhb7: de-epoxidase from Thinopyrum ponticum; polypeptide having epoxy group-removing catalytic activity, amino acid sequence SEQ ID NO: 36, gene SEQ ID NO: 1 (protein, listed as Elytrigia ponticum) MATSASTSTPIIPTAIAGAPPVAGTCCAVAPTLSALALAPLAVPTTTTTVLMPAISSVAASLAVPACALPAAGSAPATLPIIHAPATASLVGASPAIAATLGATTPASGAGALPPPGLLATAVGAAMPGLLIPLSGIAASPGLAATAAPASAVAAAPTAHVGLMVHGLPLAPATAAVTLAGPVAAAGLSSTAALGMVGGAAALMMGSLAAMLGALAALPALAASGPPLLGGAATTAAMIVGGTLAMMAATLPVSGTGGAAACHGAIPGGLHAALALTAGVL",–,–,–,–,–,–,efficiently catalyze vomitoxin into a glutathione adduct,basically lost its activity,significantly lower,less severe,significantly reduced,significantly reduced,significantly higher
